Test results reported in patent US20230293524A1, “OTIC FORMULATIONS FOR DRUG-INDUCED OTOTOXICITY” (Spiral Therapeutics Inc, priority 2019, published 2023).
Entries after “also recorded” stand apart in the source; their conditions may differ.

Assays:
[1] = Cisplatin binding, % bound
[2] = test system: outer hair cells (OHCs) and inner hair cells (IHCs); assay: Cochlear explant model: hair cell protection against cisplatin; assay type: cell-based, Sprague-Dawley rats; details: for EC100: Rattus norvegicus, read-out: Ex-vivo Efficacy Conc. for complete protection of hair cells (uM)
Text: (§1) For hair cell and spiral ganglion assessment, postnatal Sprague-Dawley rats (P2-P4) of both sexes are anesthetized with isoflurane and decapitated. Temporal bones are removed and transferred to a cell culture dish with ice-cold Ca^2+/Mg^2+-containing phosphate-buffered saline (PBS; Invitrogen) or cold HBSS medium enriched with glucose. Under microscopic visualization, the cochlear capsules are carefully removed from the temporal bone using forceps and transferred to a new cell culture dish containing ice-cold PBS. The cochleae are then dissected from the cochlear capsule using fine forceps. The stria vascularis is removed from the cochlear tissue and discarded. Dissected cochlear epithelia are transferred to permeable membrane inserts (Millicell organotypic culture plate inserts, Millipore) which are placed into 1 mL of culture media (Dulbecco's modified Eagle's medium (high glucose, Glutamax, 25 mM HEPES) with 10% fetal bovine serum, 1% N2 supplement and 10 units/ml penicillin) in a 6-well plate. Up to 4 cochleae are placed onto each membrane. Explants are placed in a humidified chamber with 5% CO2 at 37° C. for a minimum of 18 hours prior to treatment. Cultures are then pre-treated with test compounds and returned to the incubator for a period of 10 minutes to 48 hours.
(§2) Following the incubation period, cochlear samples are fixed in 4% paraformaldehyde for a minimum of 30 minutes after treatment then permeabilized in 0.5% Triton in PBS (PBST) for 1 hour, followed by overnight incubation at 4° C. in primary antibodies in 10% goat or donkey serum (Sigma). Samples are then rinsed in PBST 2 times for 10 minutes each then incubated in alexa-488 conjugated secondary antibodies for 2 hours at room temperature or overnight at 4° C. in 10% goat or donkey serum (Sigma). Samples are then rinsed 2 times in PBS then incubated in DAPI (1:3000) in PBS for 5 minutes prior to mounting on slides. To evaluate the otoprotective efficacy of the compounds, cochlear samples are immunostained using combination of antibodies generated against markers specific for hair cells (Myosin V1, Myosin VIIA, Parvalbumin, etc.), SGNs (TUJ1, Neurofilament, etc.), f-actin, cell death, cell stress, etc. as well as a nuclear stain to identify cell nuclei.
(§3) Immunostained samples are mounted on glass slides and imaged with an LSM880 laser scanning confocal microscope (Zeiss) or an Operetta high-content imager (Perkin Elmer). The entire explant is imaged for all antibody and nuclear labeling in a 3-dimensional X-Y-Z plane in which the Z-plane consists of a stack imaged at intervals of 0.5-5 μm. The total length of the organ of Corti in each explant is then determined and is divided into 4 equal length regions. Basal, middle and apical hair cells or SGNS are counted at the regions approximately 25%, 50% or 75% of the total cochlear length from the base, respectively. Hair cell survival is determined by counting the number of inner and outer hair cells at these three different regions (base, middle and apex) in each cochlear explant and determining the number of missing/dead hair cells per cochlear region. Hair cell counts are obtained by placing a 200 μm length scale bar parallel to the rows of hair cells at each region and manually counting the total number of outer hair cells (OHCs) and inner hair cells (IHCs) within the 200 μm. Similarly, to evaluate the health and survival of SGNs, the density of SGN fibers or soma is also determined per region by manual counting for same region selected for counting hair cells. Nuclear staining is analyzed to confirm the presence or absence of cell nuclei and to evaluate nuclear health. Image analysis and quantification is performed using Zeiss Zen Blue software, or Perkin Elmer Columbus software.
(§4) Neonatal (P2-P4) Sprague-Dawley rats were used for the experiments described here. Animals were euthanized following anesthesia using isoflurane. Rat cochleae were then dissected in cold HBSS medium enriched with glucose. […]

stria vascularis cells = assay: Dissociated strial cultures, caspase 3/7 activation with cisplatin; assay type: cell-based, Sprague-Dawley rats
Protocol: For strial explants, the stria vascularis is isolated from the cochlear tissue and transferred to a clean dish with cell culture media. For dissociated strial cultures, the stria vascularis is pulled off the lateral wall and collected separately. Strial cells are then dissociated using a pipette post-trypsinization and seeded onto Poly-d-lysine or collagen-coated 96-well plates. Cells are grown for 48-72 hours to achieve 80-90% confluency before treatment. […] Following treatment, cells are exposed to the Caspase-Glo 3/7 (Promega) reagent for 30 minutes then […] is read on a plate reader. In addition to the cell culture media described above, strial explants can also be maintained in the following media: MEM with Earle's salts, 15 mM HEPES buffer, 2 mM L-glutamine, 10 mg/L MEM non-essential amino acids, 2.5 mg/L fungizone, 100 units/ml penicillin, 100 mg/L streptomycin, 400 μg/L hydrocortisone, 5 mg/L transferrin, 2 nM triiodothyronine, 5 mg/L insulin, […], 10 μg/L epidermal growth factor, and 10% fetal bovine serum.
Following cochlear dissection, Reissner's membrane and the lateral wall were separated and the stria vascularis was then removed from the lateral wall. […] After incubation, cells were lysed using the Promega caspase 3/7 Glo kit and the intensity of caspase 3/7 were read using Perkin-Elmer Enspire plate reader.

[3] = test system: spiral ganglion neurons (SGNs); assay: Cochlear explant model: spiral ganglion neuron protection against cisplatin; assay type: cell-based, Sprague-Dawley rats
Text: as §1, §2, §3, §4

[4] = Pharmacokinetic study after intratympanic administration; assay type: in vivo, rats
Protocol: Female rats (Charles River) weighing 200-300 g of approximately 12-16 weeks of age served as subjects (N=4 per group). Prior to any procedures, animals were anesthetized using a combination of xylazine (10 mg/kg), ketamine (50 mg/kg), and acepromazine (1 mg/kg) for up to an hour via the intraperitoneal route. If needed, an intraoperative booster was administered intraperitoneal representing a one-tenth of the original dose.
Intratympanic injection—Each animal was positioned so that the head was tilted at an angle to favor injection towards the round window niche. […] Formulations were delivered using a perfusion pump at the rate of 2 μL/sec. Contact with the round window membrane was maintained for 30 minutes by placing the animal in a recumbent position. During the procedure and until recovery, animals were placed on a temperature controlled (40° C.) heating pad until consciousness was regained at which time they were returned to the vivarium.
Perilymph sampling procedure—The skin behind the ear of anesthetized rats was shaved and disinfected with povidone-iodine. An incision was then made behind the ear, and muscles were carefully retracted from over the bulla. A hole was drilled through the bulla using a dental burr so that the middle ear was exposed and accessed. The cochlea and the round window membrane were visualized under a stereo surgical microscope. The basal turn of bulla was cleaned by using small cotton ball. A unique microhole was hand drilled through the bony shell of the cochlea (cochlear capsule) adjacent to the round window. Perilymph (about 2 μL) was then collected using a microcapillary inserted into the cochlear scala tympani. Perilymph samples were added to a vial containing 18 μL of acetonitrile/water, stored at −80° C. until analysis.
Cochlear epithelium sampling procedure—Under a dissection scope, the bulla was opened, and the cochlea was exposed by removing all surrounding muscles, blood vessels and bone tissues. Holding the bulla, the cochlear wall bony structure was removed working from the base to the apex of the cochlea, exposing the organ of Corti. The exposed cochlear epithelium was gently dabbed with cotton swab to remove excess of liquid from tissue, carefully transferred to labelled tube. Each 2-mL plastic tube that contained acid washed 2.8 mm stainless steel beads was pre-weighed. The tubes were reweighed after adding cochlea epithelium and weights were recorded. All cochlea epithelium samples were placed in dry ice immediately after collection and stored at −80° C. prior to analysis.
Plasma sampling procedure—Blood samples were collected by cardiac puncture into labeled micro-tubes, containing lithium heparin as anticoagulant. Plasma were immediately harvested from the blood by centrifugation and collection for supernatants. All plasma samples were stored at −80° C. prior to analysis.
Samples were extracted by protein precipitation, then vortexed and centrifuged. The supernatant was collected and diluted with two folds of water. A high-performance liquid chromatography system (Agilent 1200 series) with Waters Cortecs C18 Plus column (50*4.6 mm, 2.7 μm) were used. The flow rate was set at 0.700 mL/min. A gradient method with an analytical run time of 5 minutes was used. Mobile phase A consisted of 0.01% ammonium formate, 0.03% formic acid in water. Mobile phase B consisted of 0.01% ammonium formate, 0.03% formic acid in acetonitrile: methanol (70:30, v/v). The gradient began with 30% B, stepped to 70% B at 2.75 minutes and held for 1 minute and then stepped back to 30% B to re-equilibrate the column.
Ionizations and detection of analyte and internal standard were performed on a triple quadruple mass spectrometer, API 5500 Q-Trap equipped with Turbo IonSpray@, from SCIEX (Toronto, Canada). Electro spray ionization (ESI) mass spectra was operated in the positive ion mode. Carbutamide was used as the internal standard (IS). […]

[5] = Cisplatin reaction kinetics by HPLC; details: 50 μM cisplatin + 50 μM of compound (API) in PBS, pH 7.4, 37° C.
Protocol: Reaction kinetics between Cisplatin and the compound of interest (nucleophile) were monitored by high performance liquid chromatography. Isocratic separation was achieved using a Waters Spherisorb C8 column (4×250 mm, 5 μm, 80 Å). The flow rate was set to 1.00 mL/min. The mobile phase consisted of 5 mM Sodium Octanesulfonate+5 mM Tetrabutyl Ammonium Hydrogen Sulfate+20 mM Potassium Dihydrogen Phosphate adjusted to pH 5.9. Detection was performed at a wavelength of 210 nm.
Reactions were conducted at equimolar concentrations in buffered aqueous media and held at 37° C. Rate constants (k) were determined by monitoring the disappearance of Cisplatin as a function of time.

[6] = test system: cisplatin-induced hearing loss (CIHL); assay: 3-day acute CIHL animal model, ABR thresholds; assay type: in vivo; details: 3 days
Protocol: Study Design includes: […] Formulation was delivered IT unilaterally (right ear) 30 min prior CIS. There was gross visual necropsy observation performed at termination. Tissue collected for CCG evaluation • A: Cis IP/Vehicle P407 • B: Cis IP/STS 16 mg/ml in P407 • C: Cis IP/OMY-150 16 mg/ml in P407 • D: Cis IP/OMY-150 50 mg/ml in P407

[7] = 1.5 hour pretreatment followed by co-treatment at different concentrations with 10 μM cisplatin
[8] = 16 mg/ml in P407, IT 30 min prior CIS 12 mg/kg (IP)

| Structure (SMILES) | Cisplatin Binding % bound (in 30 min) at 1:10 ratio [1] [%] | EC100 [2] [µM] | OHC protection ([2]; ex-vivo cochlear explants) | strial cell protection (stria vascularis cells) | SGN protection ([3]; ex-vivo cochlear explants) | In vivo PK in Cochlear Epithelium (24 h after dosing) [4] [ng/gm CE] | plasma exposure after IT injection ([4]; single IT injection) | perilymph and cochlear epithelium exposure after IT injection ([4]; single IT injection, MCT and/or poloxamer formulation) | k [5] [M⁻¹ s⁻¹] | protection of hair cells against cisplatin [2, 7] | protection of spiral ganglion neurons against cisplatin [3, 7] | protection of ABR thresholds [6, 8] | protection of ABR thresholds ([6]; 50 mg/ml in P407, IT 30 min prior CIS 12 mg/kg (IP)) | Ex-vivo Efficacy Conc. for complete protection of hair cells ([2]; ex vivo cochlear explants, cisplatin) [µM] |
| --- | --- | --- | --- | --- | --- | --- | --- | --- | --- | --- | --- | --- | --- | --- |
| O=C(O)c1c[nH]c(=S)[nH]c1=O [5-carboxy-2-thiouracil] | 95 | 50 to 100 | good protection | good protection | good protection |  |  |  |  |  |  |  |  |  |
| O=c1cc(-c2ccccc2)[nH]c(=S)[nH]1 [OMY-150, 6-phenyl-2-thiouracil] | 97 | 50 |  |  |  | ~1000 | significantly lower (e.g. up to 10 times or more) plasma exposure than OMY-141; also recorded: lower plasma exposure than sodium thiosulfate (STS) | good perilymph and cochlear epithelium exposure | 0.50 | complete protection | complete protection | strong protection | almost complete recovery |  |
| O=S([O-])([O-])=S.[Na+].[Na+] [STS, sodium thiosulfate, reference compound] | 50 |  |  |  |  | ~1100 |  |  | 0.52 |  |  | less protection than in previous studies |  | 100 |
